Ends that are not written are not given here.
What was measured:
[1] = system: subjects with Graves' disease; assay: Open label upward titration study of ATX-GD-59, safety; type: in vivo, human; settings: first 5 patients
Procedure: (§1) Safety and proof of principle study of ATX-GD-59 in male and female subjects with Graves' disease not currently treated with anti-thyroid therapy: An Open label study, with an upward titration over five dose levels administered by Intradermal injection.
(§2) There was an upward titration over five dose levels (injection(s) of 25, 50, 100, 400 and 800 μg) of ATX-GD-59 followed by injection(s) of 800 μg injected on five further occasions. All doses were based on the total peptide.
(§3) All doses were administered by intradermal injection at intervals of 14+/−3 days.
Subjects will be observed in the clinic for at least two hours after administration of the study drug and vital signs will be recorded at 15 minute intervals for the first hour and 30 minute intervals for the second hour. […]
Safety endpoints, which will be evaluated on an ongoing basis up to Week 22, are: • Injection site reactions as reported by the subjects in the diary card. • Occurrence of treatment related adverse events (Adverse Events), Serious Adverse Events, and laboratory abnormalities compared to baseline. • Results from the physical examination, and vital signs (reported on an ongoing basis and compared to baseline/screening). • Premature termination and reasons for premature termination from treatment and/or the study.

[2] = system: subjects with Graves' disease; assay: Open label upward titration study of ATX-GD-59, TSHR antibody and free T3 levels; type: in vivo, human
Procedure: as §1, §2, §3
Criteria for Evaluation of the Secondary Objectives: • TSHR antibody levels. • Ratio of stimulatory vs inhibitory TSHR antibodies. • Free T3, free T4 and TSH serum levels.

ATX-GD-59: comprises the RNB-5D-K1 and RNB-9B peptides of SEQ ID NOs: 5 and 6; lyophilised equimolar mixture of two peptides (chain 1 KKKKYVSIDVTLQQLESHKKK; chain 2 GLKMFPDLTKVYSTD; not fully specified)
safety data analysed by DMC [1]: No safety issues were identified
T3, % change from SD1 to W18 ([2]; Subject 3101): 13.60%
TRAb, % change from SD1 to W18 ([2]; Subject 3101): 3.58%
TSI, % change from SD1 to W18 ([2]; Subject 3101): −30.32%
T3, % change from SD1 to W18 ([2]; Subject 3301): 21.4%
TRAb, % change from SD1 to W18 ([2]; Subject 3301): 16.60%
TSI, % change from SD1 to W18 ([2]; Subject 3301): −4.48%
T3, % change from SD1 to W18 ([2]; Subject 3402): −17.72%
TRAb, % change from SD1 to W18 ([2]; Subject 3402): −61.13%
TSI, % change from SD1 to W18 ([2]; Subject 3402): −57.89%
T3, % change from SD1 to W18 ([2]; Subject 3501): −22.39%
TRAb, % change from SD1 to W18 ([2]; Subject 3501): −30.33%
TSI, % change from SD1 to W18 ([2]; Subject 3501): −32.45%
T3, % change from SD1 to W18 ([2]; Subject 3503): −45.33%
TRAb, % change from SD1 to W18 ([2]; Subject 3503): −64.51%
TSI, % change from SD1 to W18 ([2]; Subject 3503): −61.71%
stimulating TRAB levels (TSI) ([2]; first 5 subjects): All subjects had decrease
subjects with decreases in T3 and TRAB ([2]; first 5 subjects): Three of 5

From patent US20200046802A1, “THERAPEUTIC METHOD USING TOLEROGENIC PEPTIDES” (APITOPE INTERNATIONAL NV, priority 2017, published 2020)
